US20190365784A1, “USE OF BRASSINOSTEROID ANALOGS FOR THE TREATMENT OF DERMAL DISORDERS BY SELECTIVELY MODULATING LIVER X RECEPTORS (LXR) AND DERMAL DISEASE TREATMENT BY BRASSINOSTEROID ANALOGS ACTING AS SELECTIVE LIVER X RECEPTOR (LXR) MODULATORS” (CONSEJO NACIONAL DE INVESTIGACIONES CIENTÍFICAS Y TÉCNICAS …, priority 2015, published 2019)

What was measured:
IL-8 = IL-8 expression in UV-irradiated HaCaT cells (real time PCR); assay type: cell-based, human; details: 10 uM, 24 h after UV, normalized to GAPDH
Protocol: (§1) HaCaT cells—a human immortalized keratinocyte cell line—were exposed to 15 J/m^2 UVB (254 nm) irradiation. Twenty four hours after irradiation, the cells were harvested and RNA isolated to assess the expression of LXR-alpha, LXR-beta, ABCA1, TNF-alpha, IL-6, and IL-8 genes. HaCaT cells were cultured in DMEM supplemented with 10% (v/v) fetal bovine serum, penicillin (100 U/mL), streptomycin ([…]) and glutamine (2 mM). […] The expressions of ABCA1, TNF-alpha, IL-6, IL-8, LXR-alpha, and LXR-beta were normalized according to glyceraldehyde-3-phosphate dehydrogenase (GAPDH) expression. The results of three independent assays, carried out in duplicate for each condition, are reported.

ABCA1 [1] = experiment: ABCA1 expression in HL-60 cells (real time PCR); assay type: cell-based, human; details: GW3965 1 uM, 6 h
Protocol: (§2) To investigate the effects of Compounds I and II on the expression of three genes involved in lipid metabolism [fatty acid synthase (FAS); and two ATP-dependent cholesterol and phospholipid transporters, such as ABCA1 and ABCG1], human promyelocytic leukemia cells (HL-60) that endogenously express LXR-alpha and LXR-beta were incubated in the presence of either Comp I or Comp II (10 uM), or GW3965 (1 uM) for 6 h. mRNA levels for FAS, ABCA1 and ABCG1 were determined by real time PCR and results were normalized to GAPDH expression. HL-60 (10^6 cells/well) were cultured in RPMI medium supplemented with 5% (v/v) fetal bovine serum, penicillin (100 IU/mL), streptomycin (100 ug/mL) y cyprofloxacin (0.4 ug/mL). […] To obtain RNA, at the end of the incubation the cells were collected by centrifugation at 1,000 rpm for 2 min, washed with phosphate buffered saline, and lysed in 300 ul TRIZOL (Invitrogen). RNA samples were suspended in […] of RNAse free water, and their concentration determined (NanoDrop spectrophotometer). […] To obtain cDNA, 1 ug of total RNA was denatured by incubating for 5 min at 70° C., before the addition of a mixture containing 0.5 ug oligo-dT primers and 25 ng/ml of random primers (Invitrogen), 1.0 mM dNTPs (Invitrogen), and 200 U M-MLV reverse transcriptase (Promega); after this the mixture was retrotranscribed at 37° C. for 60 min, followed by an incubation at 95° C. for 5 min to inactivate the enzyme. For the real time PCR amplification (Stratagene Thermal Cycler), cDNA samples were diluted 1/5 to 1/10 depending on the target amplification product. Calibration curves were obtained by use of eight successive 1:2 sample dilutions. Amplifications were carried out in a 25 ul final volume (5 ul cDNA sample plus 20 ul of reaction mixture) in the presence of either 3, 4 or 5 mM MgCl2 (depending on the amplified sequence), 0.25 mM dNTPs (Invitrogen), 1.25 U Taq polymerase (Invitrogen), 1 μM of the specific primers according to the target amplification sequence, and 0.025 μl SYBR Green (Roche). […]

ABCA1 [2] = experiment: ABCA1 expression in HaCaT cells (real time PCR); assay type: cell-based, human; details: 10 uM
Protocol: as §1, with “HaCaT cells—a human immortalized keratinocyte cell line—were exposed to 15 J/m^2 UVB (254 nm) irradiation.” left out

TNF-alpha = TNF-alpha expression in UV-irradiated HaCaT cells (real time PCR); assay type: cell-based, human; details: 10 uM
Protocol: as §1

ABCG1 [3] = experiment: ABCG1 expression in HepG2 cells (real time PCR); assay type: cell-based, human; details: GW3965 1 uM, 6 h
Protocol: (§3) The cells were incubated for 6 h in the presence of either Compound I (10 uM), or Compound II (10 uM), or the commercial LXR agonist GW3965 (1 uM), or Vehicle [DMSO, 0.1% (v/v)]). To obtain RNA, at the end of the incubation the cells were collected by centrifugation at 1,000 rpm for 2 min, washed with phosphate buffered saline, and lysed in 300 ul TRIZOL (Invitrogen). RNA samples were suspended in ul of RNAse free water, and their concentration determined (NanoDrop spectrophotometer). The ratio of the absorbance at 260 and 280 nm was used to assess RNA purity of an RNA preparation, with a value of 1.8-2.0 indicating pure RNA. To obtain cDNA, 1 ug of total RNA was denatured by incubating for 5 min at 70° C., before the addition of a mixture containing 0.5 ug oligo-dT primers and 25 ng/ml of random primers (Invitrogen), 1.0 mM dNTPs (Invitrogen), and 200 U M-MLV reverse transcriptase (Promega); after this the mixture was retrotranscribed at 37° C. for 60 min, followed by an incubation at 95° C. for 5 min to inactivate the enzyme. For the real time PCR amplification (Stratagene Thermal Cycler), cDNA samples were diluted 1/5 to 1/10 depending on the target amplification product. Calibration curves were obtained by use of eight successive 1:2 sample dilutions. Amplifications were carried out in a 25 ul final volume (5 ul cDNA sample plus 20 ul of reaction mixture) in the presence of either 3, 4 or 5 mM MgCl2 (depending on the amplified sequence), 0.25 mM dNTPs (Invitrogen), 1.25 U Taq polymerase (Invitrogen), 1 μM of the specific primers according to the target amplification sequence, and 0.025 μl SYBR Green (Roche). Melting curves were used to assess the specificity of the amplification products. […]

LXR-alpha [4] = experiment: LXR-alpha expression in HepG2 cells (real time PCR); assay type: cell-based, human; details: GW3965 1 uM, 6 h
Protocol: The cells were incubated for 6 h in the presence of either Compound I (10 uM), or Compound II (10 uM), or the commercial LXR agonist GW3965 (1 uM), or Vehicle [DMSO, 0.1% (v/v)]). To obtain RNA, at the end of the incubation the cells were collected by centrifugation at 1,000 rpm for 2 min, washed with phosphate buffered saline, and lysed in 300 ul TRIZOL (Invitrogen). RNA samples were suspended in ul of RNAse free water, and their concentration determined (NanoDrop spectrophotometer). The ratio of the absorbance at 260 and 280 nm was used to assess RNA purity of an RNA preparation, with a value of 1.8-2.0 indicating pure RNA. To obtain cDNA, 1 ug of total RNA was denatured by incubating for 5 min at 70° C., before the addition of a mixture containing 0.5 ug oligo-dT primers and 25 ng/ml of random primers (Invitrogen), 1.0 mM dNTPs (Invitrogen), and 200 U M-MLV reverse transcriptase (Promega); after this the mixture was retrotranscribed at 37° C. for 60 min, followed by an incubation at 95° C. for 5 min to inactivate the enzyme. For the real time PCR amplification (Stratagene Thermal Cycler), cDNA samples were diluted 1/5 to 1/10 depending on the target amplification product. Calibration curves were obtained by use of eight successive 1:2 sample dilutions. […]

[5] = system: fatty acid synthase (FAS or FASN); experiment: FASN expression in HepG2 cells (real time PCR); assay type: cell-based, human; details: GW3965 1 uM, 6 h
Protocol: as §3

LXR-alpha [6] = target: T1, LXR-alpha (Homo sapiens, UniProt Q13133); experiment: LXR-alpha/RXR LRE-luciferase reporter in transfected HEK293T cells; assay type: cell-based; details: GW3965 1 uM, 18 h
T1 sequence (Q13133 1-447): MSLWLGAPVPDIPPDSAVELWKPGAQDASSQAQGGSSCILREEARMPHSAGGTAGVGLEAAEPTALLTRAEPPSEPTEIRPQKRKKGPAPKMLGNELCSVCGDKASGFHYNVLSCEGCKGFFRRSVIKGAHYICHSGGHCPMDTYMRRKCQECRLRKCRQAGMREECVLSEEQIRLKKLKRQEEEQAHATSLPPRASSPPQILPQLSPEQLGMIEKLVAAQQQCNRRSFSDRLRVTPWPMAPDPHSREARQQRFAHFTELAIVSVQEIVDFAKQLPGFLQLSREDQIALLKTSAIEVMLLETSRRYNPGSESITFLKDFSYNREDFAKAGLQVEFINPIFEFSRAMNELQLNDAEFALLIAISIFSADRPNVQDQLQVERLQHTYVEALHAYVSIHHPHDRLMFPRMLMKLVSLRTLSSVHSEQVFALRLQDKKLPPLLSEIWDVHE
T1 sequence (P19793 1-462 partner): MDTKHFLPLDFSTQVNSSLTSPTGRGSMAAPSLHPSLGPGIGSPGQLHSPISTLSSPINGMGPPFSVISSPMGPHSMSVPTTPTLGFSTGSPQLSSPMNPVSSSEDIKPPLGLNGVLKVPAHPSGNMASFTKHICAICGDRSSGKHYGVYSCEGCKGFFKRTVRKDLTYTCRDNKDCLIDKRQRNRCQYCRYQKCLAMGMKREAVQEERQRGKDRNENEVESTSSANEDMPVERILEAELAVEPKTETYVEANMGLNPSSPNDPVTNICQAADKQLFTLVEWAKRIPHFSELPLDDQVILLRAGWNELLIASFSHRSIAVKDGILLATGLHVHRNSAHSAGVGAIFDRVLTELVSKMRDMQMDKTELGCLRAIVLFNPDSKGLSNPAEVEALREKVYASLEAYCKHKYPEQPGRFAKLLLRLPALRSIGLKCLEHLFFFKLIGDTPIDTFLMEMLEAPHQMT
Excerpt: Since we had previously shown that the beneficial effects of the compounds of the invention are independent of glucocorticoid receptor (GR) activation, we set forth to investigate if they might exert their actions through activation of liver X receptors (LXR). For this purpose we used cultured cells transiently transfected with LXR-alpha, the retinoid X receptor (RXR) and a LXR response element-luciferase reporter (LRE-LUC). A. Human embryonic kidney cells (HEK293T; 5×10^5 cells/well) were cultured in DMEM medium supplemented with 10% (v/v) fetal bovine serum, 100 ug/ml of streptomycin, 100 IU/ml of penicillin and 2 mM glutamine. For the transient transfections, the cell cultures were added with plasmids carrying LXR-alpha (pLXR-alpha; 0.6 ug), the retinoid X receptor (pRXR; 0.2 ug), a LXR response element-luciferase reporter (pRE-LUC; 0.7 ug) and beta-galactosidase gene (pRSV-LacZ; 0.6 ug) as a transfection control, using Lipofectamine 2000 (Invitrogen). […] Compounds III to VI are […] analogs bearing a fluorine atom at C-6. To assess LXR-alpha activation, at the end of the incubation period luciferase activity was measured by use of a luciferase assay system (Promega). The results of three independent assays, carried out in duplicate for each condition, are reported.

LXR-alpha [7] = experiment: LXR-alpha expression in UV-irradiated HaCaT cells (real time PCR); assay type: cell-based, human; details: 10 uM, 24 h after UV, vs. DMSO (UV, 24 h) and GW3965 (UV, 24 h)
Protocol: as §1

[8] = system: fatty acid synthase (FAS); experiment: FAS expression in HL-60 cells (real time PCR); assay type: cell-based, human; details: GW3965 1 uM, 6 h
Protocol: as §2

SRBEP-1 = SRBEP-1 expression in HepG2 cells (real time PCR); assay type: cell-based, human; details: GW3965 1 uM, 6 h
Protocol: as §3

ABCG1 [9] = experiment: ABCG1 expression in HL-60 cells (real time PCR); assay type: cell-based, human; details: GW3965 1 uM, 6 h
Protocol: as §2

LXR-alpha driven gene expression, increase compared with vehicle-treated cells (LXR-alpha [6]): 3 fold
SMILES: O=C(O)Cc1cccc(OCCCN(Cc2cccc(C(F)(F)F)c2Cl)CC(c2ccccc2)c2ccccc2)c1 [GW3965, reference compound]
IL-8 expression versus DMSO-treated cells (IL-8): significantly lower | ABCA1 expression higher than in vehicle-treated controls (ABCA1 [1]): ~3 times | induction of ABCA1 expression versus Comp I- or Comp II-treated cells (ABCA1 [2]; HaCaT, 24 h after UV exposure): stronger | induction of ABCA1 expression versus Comp I- or Comp II-treated cells (ABCA1 [2]; non-irradiated HaCaT): stronger | TNF-alpha expression versus Comp I-treated cells (TNF-alpha; 24 h after UV): significantly higher | TNF-alpha expression versus DMSO-treated cells (TNF-alpha; 24 h after UV (254 nm, 15 J/m^2), normalized to GAPDH): significantly lower | ABCG1 expression higher than in vehicle (DMSO) treated controls (ABCG1 [3]): 60 times | induction of LXR-alpha expression compared with DMSO treated HepG2 (LXR-alpha [4]): 3.5 times | FASN expression higher than in vehicle (DMSO) treated controls [5]: 3.7 times | LXR-alpha expression (LXR-alpha [7]): higher in HaCaT incubated in the presence of DMSO compared with non-irradiated cells and GW3965-treated cells | FAS expression higher than in vehicle-treated controls [8]: 1.8 times | SRBEP-1 expression higher than in vehicle (DMSO) treated controls (SRBEP-1): 4.6 times | ABCG1 expression higher than in vehicle-treated controls (ABCG1 [9]): ~10 times
